Laboratory results from patent US6737383B1, “Herbicidal oxadiazolidines” (priority 1999, dated 2004).

Columns and labels:
bedstraw = test: Test B pre/postemergence bedstraw; type: in vivo, Galium aparine; details: Postemergence
Method in brief: (§1)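 Test chemicals in a non-phytotoxic solvent mixture with surfactant were sprayed preemergence onto planted seeds and postemergence onto plants 2 to 18 cm tall (1- to 4-leaf stage). After twelve to sixteen days in a greenhouse, injury was visually rated against untreated controls from 0 (no effect) to 10 (complete control).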

blackgrass = test: Test B pre/postemergence blackgrass; type: in vivo, Alopecurus myosuroides
Method in brief: as §1

surinam grass = test: Test B pre/postemergence surinam grass; type: in vivo, Brachiaria decumbens
Method in brief: as §1

corn = test: Test B pre/postemergence corn; type: in vivo, Zea mays
Method in brief: as §1

crabgrass = test: Test B pre/postemergence crabgrass; type: in vivo, Digitaria sanguinalis
Method in brief: as §1

giant foxtail = test: Test B pre/postemergence giant foxtail; type: in vivo, Setaria faberii
Method in brief: as §1

morningglory = test: Test B pre/postemergence morningglory; type: in vivo, Ipomoea hederacea; details: for Plant response rating, Morningglory: scale of 0 to 10 where 0 is no effect and 10 is complete control
Method in brief: as §1

pigweed = test: Test B pre/postemergence pigweed; type: in vivo, Amaranthus retroflexus; details: for Plant response rating, Redroot pigweed: scale of 0 to 10 where 0 is no effect and 10 is complete control
Method in brief: as §1

rape = test: Test B pre/postemergence rape; type: in vivo, Brassica napus; details: for Plant response rating, Rape: scale of 0 to 10 where 0 is no effect and 10 is complete control
Method in brief: as §1

sugar beet = test: Test B pre/postemergence sugar beet; type: in vivo, Beta vulgaris; details: for Plant response rating, Sugarbeets: scale of 0 to 10 where 0 is no effect and 10 is complete control
Method in brief: as §1

wheat = test: Test B pre/postemergence wheat; type: in vivo, Triticum aestivum; details: for Plant response rating, Wheat: scale of 0 to 10 where 0 is no effect and 10 is complete control
Method in brief: as §1

wild oat = test: Test B pre/postemergence wild oat; type: in vivo, Avena fatua; details: for Plant response rating, Wild oats: scale of 0 to 10 where 0 is no effect and 10 is complete control
Method in brief: as §1

purple nutsedge = test: Test B pre/postemergence purple nutsedge; type: in vivo, Cyperus rotundus; details: for Plant response rating, Nutsedge: scale of 0 to 10 where 0 is no effect and 10 is complete control
Method in brief: as §1

rice = test: Test B flood test rice; type: in vivo, Oryza sativa
Method in brief: (§2)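 Read-out is a visual response score from 0 (no effect) to 10 (complete control), assigned by comparison with untreated controls. Treatment was applied at the 2-leaf stage, and plants stayed in the greenhouse for twelve to sixteen days before scoring.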

smallflower flatsedge = test: Test B flood test smallflower flatsedge; type: in vivo, Cyperus difformis
Method in brief: as §2

bamyardgrass = test: Test B flood test barnyardgrass; type: in vivo, Echinochloa crus-galli
Method in brief: as §2

[1] = Postemergence, Rate 250 g/ha, scale 0 to 10
[2] = Postemergence, Rate 500 g/ha, scale of 0 to 10 where 0 is no effect and 10 is complete control
[3] = Preemergence, Rate 62 g/ha, scale of 0 to 10 where 0 is no effect and 10 is complete control
[4] = Preemergence, Rate 125 g/ha, scale of 0 to 10 where 0 is no effect and 10 is complete control
[5] = Preemergence, Rate 250 g/ha, scale 0 to 10, 0 is no effect, 10 is complete control
[6] = Preemergence, Rate 500 g/ha, scale 0 to 10, 0 is no effect, 10 is complete control
[7] = Rate 62 g/ha, Postemergence, scale 0 to 10 (0 no effect, 10 complete control)
[8] = Rate 125 g/ha, Postemergence, scale 0 to 10, 0 is no effect, 10 is complete control
[9] = Rate 62 g/ha, flood test species, Pre-emergence, visual evaluation after twelve to sixteen days
[10] = Rate 125 g/ha, under heading Pre-emergence, flood test species, visual evaluation after twelve to sixteen days
[11] = Rate 250 g/ha, Pre-emergence (flood test species), scale 0 to 10, 0 is no effect, 10 is complete control
[12] = Rate 500 g/ha, Pre-emergence, flood test species, scale 0 to 10 (0 no effect, 10 complete control)

## CC(C)N(C(=O)n1oc(=O)n(CCCl)c1=O)c1ccccc1 [Compound 469]
bedstraw; Rate 250 g/ha, scale 0 to 10
  Bedstraw plant response rating: 6
bedstraw; Rate 500 g/ha, scale of 0 to 10 where 0 is no effect and 10 is complete control
  Bedstraw plant response rating: 6
bedstraw; Rate 62 g/ha, scale 0 to 10 (0 no effect, 10 complete control)
  Bedstraw plant response rating: 0
blackgrass; [1]
  Blackgrass plant response rating: 9
blackgrass; [2]
  Blackgrass plant response rating: 9
blackgrass; [3]
  Plant response rating, Blackgrass: 6
blackgrass; [4]
  Plant response rating, Blackgrass: 8
blackgrass; [5]
  Blackgrass plant response rating: 9
blackgrass; [6]
  Blackgrass plant response rating: 10
blackgrass; [7]
  Blackgrass plant response rating: 7
blackgrass; [8]
  Blackgrass plant response rating: 7
Surinam grass; Postemergence, Rate 250 g/ha, scale 0 to 10, 0 no effect, 10 complete control
  B. signalgrass plant response rating: 2
Surinam grass; [2]
  B. signalgrass plant response rating: 6
Surinam grass; [3]
  Plant response rating, B. signalgrass: 3
Surinam grass; [4]
  Plant response rating, B. signalgrass: 7
Surinam grass; [5]
  B. signalgrass plant response rating: 7
Surinam grass; [6]
  B. signalgrass plant response rating: 10
Surinam grass; [7]
  B. signalgrass plant response rating: 0
Surinam grass; [8]
  B. signalgrass plant response rating: 2
corn; [1]
  Corn plant response rating: 2
corn; [2]
  Corn plant response rating: 4
corn; [3]
  Plant response rating, Corn: 0
corn; [4]
  Plant response rating, Corn: 2
corn; [5]
  Corn plant response rating: 8
corn; [6]
  Corn plant response rating: 9
corn; [7]
  Corn plant response rating: 0
corn; [8]
  Corn plant response rating: 0
crabgrass; [1]
  Crabgrass plant response rating: 9
crabgrass; [2]
  Crabgrass plant response rating: 9
crabgrass; [3]
  Plant response rating, Crabgrass: 9
crabgrass; [4]
  Plant response rating, Crabgrass: 10
crabgrass; [5]
  Crabgrass plant response rating: 10
crabgrass; [6]
  Crabgrass plant response rating: 10
crabgrass; [7]
  Crabgrass plant response rating: 3
crabgrass; [8]
  Crabgrass plant response rating: 6
Giant foxtail; [1]
  Giant foxtail plant response rating: 9
Giant foxtail; [2]
  Giant foxtail plant response rating: 9
Giant foxtail; [3]
  Plant response rating, Giant foxtail: 9
Giant foxtail; [4]
  Plant response rating, Giant foxtail: 10
Giant foxtail; [5]
  Giant foxtail plant response rating: 10
Giant foxtail; [6]
  Giant foxtail plant response rating: 10
Giant foxtail; [7]
  Giant foxtail plant response rating: 8
Giant foxtail; [8]
  Giant foxtail plant response rating: 9
morningglory; [1]
  Morningglory plant response rating: 10
morningglory; Preemergence, Rate 62 g/ha
  Plant response rating, Morningglory: 0
morningglory; Preemergence, Rate 125 g/ha
  Plant response rating, Morningglory: 0
morningglory; [5]
  Morningglory plant response rating: 0
morningglory; [6]
  Morningglory plant response rating: 1
morningglory; [7]
  Morningglory plant response rating: 9
morningglory; [8]
  Morningglory plant response rating: 9
pigweed; [1]
  Redroot pigweed plant response rating: 2
pigweed; Preemergence, Rate 62 g/ha
  Plant response rating, Redroot pigweed: 5
pigweed; Preemergence, Rate 125 g/ha
  Plant response rating, Redroot pigweed: 10
pigweed; [5]
  Redroot pigweed plant response rating: 10
pigweed; [6]
  Redroot pigweed plant response rating: 10
pigweed; [7]
  Redroot pigweed plant response rating: 0
pigweed; [8]
  Redroot pigweed plant response rating: 0
rape; [1]
  Rape plant response rating: 0
rape; Preemergence, Rate 62 g/ha
  Plant response rating, Rape: 0
rape; Preemergence, Rate 125 g/ha
  Plant response rating, Rape: 2
rape; [5]
  Rape plant response rating: 10
rape; [6]
  Rape plant response rating: 10
rape; [7]
  Rape plant response rating: 0
rape; [8]
  Rape plant response rating: 0
Sugar beet; [1]
  Sugarbeets plant response rating: 2
Sugar beet; Preemergence, Rate 62 g/ha
  Plant response rating, Sugarbeets: 6
Sugar beet; Preemergence, Rate 125 g/ha
  Plant response rating, Sugarbeets: 8
Sugar beet; [5]
  Sugarbeets plant response rating: 8
Sugar beet; [6]
  Sugarbeets plant response rating: 10
Sugar beet; [7]
  Sugarbeets plant response rating: 0
Sugar beet; [8]
  Sugarbeets plant response rating: 0
wheat; [1]
  Wheat plant response rating: 3
wheat; Preemergence, Rate 62 g/ha
  Plant response rating, Wheat: 0
wheat; Preemergence, Rate 125 g/ha
  Plant response rating, Wheat: 2
wheat; [5]
  Wheat plant response rating: 3
wheat; [6]
  Wheat plant response rating: 6
wheat; [7]
  Wheat plant response rating: 0
wheat; [8]
  Wheat plant response rating: 0
Wild oat; [1]
  Wild oats plant response rating: 3
Wild oat; Preemergence, Rate 62 g/ha
  Plant response rating, Wild oats: 7
Wild oat; Preemergence, Rate 125 g/ha
  Plant response rating, Wild oats: 7
Wild oat; [5]
  Wild oats plant response rating: 10
Wild oat; [6]
  Wild oats plant response rating: 10
Wild oat; [7]
  Wild oats plant response rating: 0
Purple nutsedge; [1]
  Nutsedge plant response rating: 0
Purple nutsedge; Preemergence, Rate 62 g/ha
  Plant response rating, Nutsedge: 0
Purple nutsedge; Preemergence, Rate 125 g/ha
  Plant response rating, Nutsedge: 0
Purple nutsedge; [5]
  Nutsedge plant response rating: 0
Purple nutsedge; [7]
  Nutsedge plant response rating: 0
Purple nutsedge; [8]
  Nutsedge plant response rating: 0
rice; [9]
  Plant response rating, Rice (0 to 10 scale, 0 is no effect, 10 is complete control): 0
rice; [10]
  Rice plant response rating (0 to 10 scale, 0 is no effect, 10 is complete control): 0
rice; [11]
  Rice plant response rating: 0
rice; [12]
  Rice plant response rating: 0
Smallflower flatsedge; [9]
  Plant response rating, S. Flatsedge (0 to 10 scale, 0 is no effect, 10 is complete control): 0
Smallflower flatsedge; [10]
  S. Flatsedge plant response rating (0 to 10 scale, 0 is no effect, 10 is complete control): 0
Smallflower flatsedge; [11]
  S. Flatsedge plant response rating: 0
Smallflower flatsedge; [12]
  S. Flatsedge plant response rating: 0
bamyardgrass; [9]
  Plant response rating, Barnyardgrass (0 to 10 scale, 0 is no effect, 10 is complete control): 0
bamyardgrass; [10]
  Barnyardgrass plant response rating (0 to 10 scale, 0 is no effect, 10 is complete control): 0
bamyardgrass; [11]
  Barnyardgrass plant response rating: 0
bamyardgrass; [12]
  Barnyardgrass plant response rating: 0
